From patent US20220144853A1, “IMIDAZOLINE DERIVATIVES AS CXCR4 MODULATORS” (Université de Paris, priority 2019, published 2022)
Structures can show the parent of a compound that is named as a salt. Each block holds one compound with its values, some of them ahead of it.

Experiments:
[1] = tested on: IFN production by activated immune cells (PBMC); assay: IFN production by R848-activated PBMC from healthy donors, STING-37 reporter cell line; type: cell-based, human; conditions: different concentrations, R848, STING-37 reporter, FIG. 1
Method: 1) The blood from healthy donors was obtained from two sources. Either from “Etablissement Français du Sang” (convention #07/CABANEL/106), Paris, France or from the Apheresis and Blood Donation Unit at the Institute of Transfusion Medicine and Immunogenetics (IKT), Ulm, Germany after being approved by the Institutional Review Board at Ulm University.
(§1) In vitro experiments were performed using human peripheral blood mononuclear cells (PBMCs) isolated by density centrifugation from peripheral blood leukocyte separation medium (Cambrex, Gaithersburg, Md.).
(§2) PBMCs were cultured in RPMI 1640 (Invitrogen, Gaithersburg, Md.) (R10) containing 10% heat-inactivated fetal bovine serum, 100 U/mL Penicilium and 100 μg/mL Streptomycin (1% Pen-Strep) and 1 mM glutamine (Hyclone, Logan, Utah).
1) The PBMCs used herein were prepared as described in part A “immune cells preparation”, section 1) above. PBMCs were seeded at 2.10^6/mL. […]
(§3) 1) To quantify the secretion of functional IFN, a biological assay based on a stable cell line where luciferase reporter gene is controlled by five Interferon-Stimulated Response Elements (STING37 cell line) was used. […] After 24 h of culture, luciferase activity was determined by adding 50 μL of Bright-Glo reagents (Promega) to culture wells and measuring bioluminescence with a luminometer.

[2] = tested on: TNFα production by monocytes (CD14+ cells); assay: TNFα production by monocytes from juvenile dermatomyositis patients, intracellular staining by flow cytometry; type: cell-based, human; conditions: PBMCs from 2 juvenile dermatomyositis patients; R848 overnight; FIG. 3
Method: (§4) Material from Juvenile Dermatomyositis and Lupus patients were obtained from Necker Hospital, Paris, France or from Imagine Institute, Paris, France. The study was approved by the Conité des Protection des Personnes (ID-RCB/EUDRACT: 2014-A01017-40 and 2018-A01358-47) in France.
as §1
(§5) 1) The PBMCs used herein were prepared as described in part A “immune cells preparation”, section 1) above. PBMCs were seeded at 2.10^6/mL. […] Cells were then stimulated with the TLR7/8 agonist resiquimod—R848 (Invivogen) at 5 μg/mL. When stated, AMD (20 μM) (Sigma-Aldrich, MO, USA) was added to the cells 1 h before incubation with example 1.
R848-stimulated PBMCs were washed in PBS and then incubated with a viability stain (Zombie-Aqua, Biolegend) for 30 min at 4° C. After washing, the cells were resuspended in PBS containing 2% FCS and 2 mM EDTA and stained with the extracellular mix using APC-anti-BDCA4 (clone 12C2), FITC-anti-CD123 (clone 6H6), PerCP.cy5.5-anti-CD56 (clone 5.1H11), BV421-anti-HLADR (clone L243), PE.cy7-anti-CD19 (clone 4G7), APC-cy.7-anti-CD14 (clone M5E2) all from Biolegend and used at 1/200 and V500-anti-CD3 (BD Bioscience, clone SP34-2, 1/200). […]

[3] = tested on: IFN production by activated immune cells (PBMC) from lupus patients; assay: IFN production by R848-activated PBMC from lupus patients, STING-37 reporter cell line; type: cell-based, human; conditions: 10 μM, PBMC from three SLE patients, FIG. 2
Method: as §4, §1, §2
1) The PBMCs used herein were prepared as described in part A “immune cells preparation”, section 1) above. PBMCs were seeded at 2.10^6/mL. […] Cells were then stimulated with the TLR7/8 agonist resiquimod—R848 (Invivogen) at 5 μg/mL. […]
as §3

[4] = tested on: TNFα production by monocytes (CD14+ cells); assay: Requirement of CXCR4 (siRNA knockdown or AMD3100) for the effect on TNFα production by monocytes from healthy donors; type: cell-based, human
Method: Monocytes were purified from PBMCs by positive selection with the CD14 microbeads (Miltenyi Biotec) and MACS column.
as §5
Isolated monocytes were seeded at 10^5 cells/100 μL in 96-well plates and incubated at 37° C. Cyclophilin B (control) and CXCR4 small interfering RNA (siRNA) (Smart Pool, Dharmarcon) was diluted in DOTAP (Roche Applied Sciences). The mix was gently mixed and incubated at room temperature for 15 minutes. After incubation, the mix was added to cells in culture at a final concentration of 160 nM. Finally, cells were incubated at 37° C. for 24 hours before stimulation.
R848-stimulated PBMCs were washed in PBS and then incubated with a viability stain (Zombie-Aqua, Biolegend) for 30 min at 4° C. After washing, the cells were resuspended in PBS containing 2% FCS and 2 mM EDTA and stained with the extracellular mix using APC-anti-BDCA4 (clone 12C2), FITC-anti-CD123 (clone 6H6), PerCP.cy5.5-anti-CD56 (clone 5.1H11), BV421-anti-HLADR (clone L243), PE.cy7-anti-CD19 (clone 4G7), APC-cy.7-anti-CD14 (clone M5E2) all from Biolegend and used at 1/200 and V500-anti-CD3 (BD Bioscience, clone SP34-2, 1/200). For the TNFα intracellular staining a Fixation/Permeabilization Solution Kit (BD Cytofix/Cytoperm) was used according to the manufacturer's protocol. Briefly, the cells were fixed for 10 min at 4° C. with 100 μL of the Fixation/Permeabilization solution then washed and stained in 100 μL of the BD Perm/Wash Buffer containing TNFα-APC (Miltenyi, 1/500) antibody for 1 h at 4° C. Data acquisition was performed on a Canto II flow cytometer using Diva software (BD Biosciences, San Jose, Calif.). FlowJo software (Treestar, Ashland, Oreg.) was used to analyze data.

[5] = molecular target: T1, human CXCR4 (hCXCR4) receptor (Homo sapiens, UniProt P61073); assay: BRET assay of antagonist activity on the CXCR4-CXCL12 signaling pathway in transfected HEK-293 T cells; type: cell-based; conditions: Gαi1, Gαi2, Gαi3, GαoB or Gαz, EC80 CXCL12, FIG. 6
T1 construct: expressed in transfected cells; host or cells: HEK-293 T cells, transient co-transfection with polyethylenimine
T1 sequence (P61073 whole entry): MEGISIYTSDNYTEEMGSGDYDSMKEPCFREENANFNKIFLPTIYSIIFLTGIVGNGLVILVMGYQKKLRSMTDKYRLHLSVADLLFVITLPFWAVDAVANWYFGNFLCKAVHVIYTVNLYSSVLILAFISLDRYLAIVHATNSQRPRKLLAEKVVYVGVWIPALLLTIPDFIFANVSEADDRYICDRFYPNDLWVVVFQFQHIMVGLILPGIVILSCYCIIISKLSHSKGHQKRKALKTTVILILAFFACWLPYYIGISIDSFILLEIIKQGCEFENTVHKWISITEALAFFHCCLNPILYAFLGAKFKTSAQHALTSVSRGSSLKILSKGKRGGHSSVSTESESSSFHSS
Method: Examples of the present invention were tested for their antagonist activity on human CXCR4 (hCXCR4) receptor transiently over-expressed in HEK-293 T cells. Compounds exert antagonist activity if they decrease the action of CXCL12 on the receptor.
HEK-293 T cells are maintained in Dulbecco's Modified Eagle's Medium supplemented with 10% Foetal Calf Serum, 1% Penicillin/Streptomycin at 37° C./5% CO2. […] After transfection, cells are cultured for 48 h at 37° C./5% CO2.
On the day of the assay, cells are detached using trypsin 0.05%, resuspended in assay buffer (1.8 mM CaCl2, 1 mM MgCl2, 2.7 mM KCl, 137 mM NaCl, 0.4 mM NaH2PO4, 5.5 mM D-Glucose, 11.9 mM NaHCO3, 25 mM Hepes) and seeded in 384 well plate at a density of 20,000 cells per well.
Cells are first incubated for 10 minutes with the compound alone. Then, cells are stimulated by an EC80 CXCL12 concentration for additional 10 minutes and luminescence is recorded. […] Antagonist activity is evaluated in comparison to basal signals evoked by EC80 CXCL12 alone.
For IC50 determination, a dose-response test is performed using 20 concentrations (ranging over 6 logs) of each compound. Dose-response curves are fitted using the sigmoidal dose-response (variable slope) analysis in GraphPad Prism software (GraphPad Software) and IC50 of antagonist activity is calculated. […]

IL-18 = assay: Cytokine production by R848-activated PBMCs, LEGENDplex Human Inflammation panel 1: IL-18; type: cell-based; conditions: PBMCs from 2 healthy donors, R848 overnight
Method: (§6) 2) The PBMCs used herein were prepared as described in part A “immune cells preparation”, section 2) above. PBMCs were seeded at 4.10^6/mL. […] Cells were then stimulated with the TLR7/8 agonist resiquimod—R848 (Sigma-Aldrich, MO, USA) at 5 μg/mL.
(§7) Cytokine expression levels were assessed using LEGENDplex Human inflammation panel 1 Kit (BioLegend, California, USA), which is a bead-based multiplex assay, using fluorescence-encoded beads. […] First, supernatants of R848-stimulated PBMCs were harvested after 24 h of stimulation and frozen at −20° C. for storage. Supernatants were dispensed into a 96-well V-bottom plate. Protocol pursued as per manufacturer recommendations (Manual for BioLegend LEGENDplex, Multi-Analyte Flow Assay Kit, Human Inflammation Panel 1, version 750000393_R01).

[6] = tested on: MCP-1, IL-6, IL-8 and IL-33; assay: Cytokine production by R848-activated PBMCs, LEGENDplex: other inflammatory cytokines; type: cell-based, human; conditions: PBMCs from two healthy donors; R848 5 μg/mL
Method: as §6, §7

IL-10 = assay: Cytokine production by R848-activated PBMCs, LEGENDplex Human Inflammation panel 1: IL-10; type: cell-based; conditions: PBMCs from 2 healthy donors, R848 overnight
Method: as §6, §7

IL-12p70 = assay: Cytokine production by R848-activated PBMCs, LEGENDplex Human Inflammation panel 1: IL-12p70; type: cell-based; conditions: PBMCs from 2 healthy donors, R848 overnight
Method: as §6, §7

TNF-α = assay: Cytokine production by R848-activated PBMCs, LEGENDplex Human Inflammation panel 1: TNF-α; type: cell-based; conditions: PBMCs from 2 healthy donors, R848 overnight
Method: as §6, §7

IFN-γ = assay: Cytokine production by R848-activated PBMCs, LEGENDplex Human Inflammation panel 1: IFN-γ; type: cell-based; conditions: PBMCs from 2 healthy donors, R848 overnight
Method: as §6, §7

IL-1β = assay: Cytokine production by R848-activated PBMCs, LEGENDplex Human Inflammation panel 1: IL-1β; type: cell-based; conditions: PBMCs from 2 healthy donors, R848 overnight, read-out: IC50 (μM) 1L-1β
Method: as §6, §7

IL-23 = assay: Cytokine production by R848-activated PBMCs, LEGENDplex Human Inflammation panel 1: IL-23; type: cell-based; conditions: PBMCs from 2 healthy donors, R848 overnight
Method: as §6, §7

[7] = tested on: IFN production by activated PBMCs; assay: IFN production by R848-activated PBMCs from healthy donors, twINNE reporter cell line; type: cell-based, human; conditions: means of two results over 2 healthy donors, R848 5 μg/mL, IT1t: mean over all experiments, read-out: IC50 of anti-inflammatory activity (IFN production)
How it was run: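 Human PBMCs (4.10^6/mL, RPMI/10% FBS, 37° C) stimulated with R848 at 5 μg/mL; supernatants collected after 24 h. Functional IFN measured on twINNE cells (ISRE-driven luciferase reporter) after 24 h culture by bioluminescence; IC50 from variable-slope dose-response fits.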

antagonist activity: recruitment of G proteins induced by the hCXCR4-CXCL12 interaction [5]: significantly lower than IT1t
SMILES: CC1(C)CN2C(CSC3=NC4CCCCC4N3)=CSC2=N1 (stereo not drawn) [Example 1, 3-(((3a,4,5,6,7,7a-hexahydro-1H-benzo[d]imidazol-2-yl)thio)methyl)-6,6-dimethyl-5,6-dihydroimidazo[2,1-b]thiazole dihydrochloride]
reduction of IFN production by activated PBMCs [1]: 100%
TNF-α production in CD14+ monocytes [2]: strongly inhibited
IFN production by activated PBMCs [3]: level similar to the one of unstimulated negative controls
TNFα production by activated monocytes in the presence of the example after pre-incubation with AMD3100 ([4]; AMD3100 20 μM 1 h, example 1 5 μM or example 2 1 μM, R848, FIG. 5B): restored
TNFα production by activated monocytes in the presence of the example after CXCR4 siRNA ([4]; siCXCR4 160 nM 24 h, example 1 5 μM, R848, FIG. 5A): restored

SMILES: CC1(C)CN2C(CSC(=NC3CCCCC3)NC3CCCCC3)=CSC2=N1 [IT1t, reference compound]
IC50 (IL-18): 9.7 µM
inhibition on other inflammatory cytokines such as MCP-1, IL-6, IL-8 and IL-33 [6]: no or poor inhibition
IC50 (IL-10): 20 µM
IC50 (IL-12p70): 16 µM
IC50 (TNF-α): 48 µM
IC50 (IFN-γ): 24 µM
IC50 (IL-1β): 38 µM
IC50 (IL-23): 14 µM
IC50 [7]: 31 µM
